Data as given in patent US7629318B2, “Immunosuppressant compounds, methods and uses related thereto” (priority 2002, dated 2009).
Read-outs that look alike come from different tables or passages of the source. Square brackets hold non-standard residues; d marks the D form. Peptide text beside a SMILES is read from it. * marks the point of attachment. Gly(1-amidinopiperidin-4-yl) = N=C(N)N1CCC([C@H](N)C(=O)O)CC1; Tetrahydroisoquinolin(2-yl) = c1ccc2c(c1)CCN(*)C2; N(Me)CH2CH2Ph = CN(CCc1ccccc1)*; Tic = O=C(O)[C@@H]1Cc2ccccc2CN1; Cha = N[C@@H](CC1CCCCC1)C(=O)O; X4 = OCCOCCN(CCc1ccccc1)*; Nle = CCCC[C@H](N)C(=O)O; X2 = OCCOCCN(Cc1ccccc1)*; X6 = OCCN(CCc1ccccc1)*; X5 = OCCN(Cc1ccccc1)*

Tests used:
[1] = target: DR4Dw4 (DRA1*0101 DRB1*0401) (Homo sapiens, UniProt P01903+P01911, A100K/A169T/F76Y/I96L/K127E/L162R/M171V/N62H/P40V/Q125Y/R42H/S133A/S149N/S66Y/V115G/V209L/W38E); assay: Competitive binding to MHC-II protein DR4Dw4
Procedure: (§1) Interaction mixtures lacking the peptidomimetic compound and both peptide mimetic compound and MHC-II were used as positive and negative controls, respectively. All interaction mixtures were set up in duplicates and were incubated for 16 hours at room temperature.
(§2) After washing with PBS, 60 μl of the MHC-II-compound interaction mixtures were transferred from the interaction plate to the appropriate wells of the capture plate and incubated for 2 h at 4° C. The wells were washed six times with 200 μl/well of cooled (4 to 8° C.) 1×DELFIA wash (Wallac-ADL-GmbH, Freiburg), incubated with 100 μl of cooled Europium-streptavidin conjugate (Wallac-ADL-GmbH, Freiburg; diluted 1/1000 with DELFIA assay buffer) for 30 minutes at 4° C., again washed six times with cooled 1×DELFIA wash and, finally, incubated with 200 μl cooled DELFIA enhancement solution (Wallac-ADL-GmbH, Freiburg) for one hour at room temperature before reading the time-resolved europium fluorescence at λex Eu^3+: 340 nm and λem Eu^3+: 613 (615) nm (Wallac Victor^2 1420 Multilabel Counter, Wallac-ADL-GmbH, Freiburg).

[2] = target: DR1 (DRA1*0101 DRB1*0101) (Homo sapiens, UniProt P01903+P01911, A100R/D57E/F55L/F60I/F76Y/I96L/L162R/M171V/P40L/Q125E/R42F/V115G/Y59C); assay: Competitive binding to MHC-II protein DR1; settings: Protein binding IC50 (nM) 0101, 0101
Procedure: as §1, §2

[3] = target: DR4Dw14 (DRA1*0101 DRB1*0404) (Homo sapiens, UniProt P01903+P01911, A100R/A169T/F76Y/I96L/K127E/L162R/M171V/N62H/P40V/Q125Y/R42H/S133A/S149N/S66Y/V209L/W38E); assay: Competitive binding to MHC-II protein DR4Dw14
Procedure: as §1, §2

[4] = Stability of compounds in rat blood plasma; type: in vitro ADME
Procedure: (§3) The stability of the peptidomimetic compounds was determined in rat (Charles River Laboratories, Sulzfeld), mouse (Charles River Laboratories, Sulzfeld) and human (Bayerisches Rotes Kreuz, München) blood plasma (E. R. Garrett and M. R. Gardner, J Pharmaceutical Sciences 71 (1982) 14-25).
(§4) Compound stock solutions were diluted into blood plasma to give a final compound concentration of 5 μM and the mixtures were incubated at 37° C. At 0, 6 and 24 hours 1 ml samples were drawn and the plasma proteins were precipitated by the addition of 3 ml acetonitrile p.a. and whirlmixing. The precipitate was pelleted by centrifugation at 2000 g for 5 minutes. The supernatant was evaporated off to dryness and the residue was reconstituted in 400 μl 50% acetonitrile, 0.1% TFA in water.
(§5) PBS controls were prepared for unstable compounds accordingly.

[5] = Stability of compounds in mouse blood plasma; type: in vitro ADME
Procedure: as §3, §4, §5

[6] = target: Cathepsin D (EC 3.4.23.5 from bovine spleen) (Bos taurus, UniProt P80209)
Procedure: The stability of the peptidomimetic compounds towards lysosomal degradation was examined by incubation with Cathepsin B1 (EC 3.4.22.1 from bovine spleen; Sigma-Aldrich, Taufkirchen; dissolved at 10000 U/l in ddH2O) and D (EC 3.4.23.5 from bovine spleen; Sigma-Aldrich, Taufkirchen; dissolved at 10000 U/l in ddH2O) for four hours at 37° C. using a compound concentration of 50 μM and an enzyme/substrate ratio of 0.4 U/μmol. The samples contained 25 ppm 4-isopropyl benzyl alcohol (IPBA; Sigma-Aldrich, Taufkirchen) as internal standard.
Assay buffer was prepared by adding 35 μl of a 1% IPBA in DMSO solution and 28 μl of a 10000 U/l Cathepsin B1 or Cathepsin D stock solution to 14 ml of 100 mM sodium acetate, 1 mM EDTA, 1 mM DTT, pH 5.00 or 100 mM sodium acetate, pH 4.50, respectively. 8.8 μl of a 5 mM (or 4.4 μl of a 10 mM) compound stock solution (in 10% DMSO/water) were placed into a 1.5 ml Eppendorf tube. The reaction was started by adding 875 μl fully supplemented assay buffer to each tube, whirlmixing and incubation at 37° C. At 0 and 4 hours 400 μl samples were taken and the enzyme was inactivated by addition of 40 μl […] TFA aq. The samples were kept frozen at −20° C. until analysis by RP-HPLC (200 μl injection volume; Nucleosil 100-5 C18, 12.5×4.6 cm; Gradient: 20-50% acetonitrile in 30 min).
Compounds co-eluting with the internal standard during RP-HPLC analysis were tested without the standard as Example 16.

[7] = target: Cathepsin B1 (EC 3.4.22.1 from bovine spleen) (Bos taurus, UniProt P07688); settings: Cathepsin B, 4 h
[8] = system: T-cell proliferation, DR14-LN; settings: for Immunsupressive assays DR14-LN (Max) % Inhibition: maximal inhibition; for IC50: read-out: Immunsupressive assays DR14-LN (IC50)
[9] = Stability of compounds in human blood plasma; type: in vitro ADME
Procedure: as §3, §4, §5

[10] = system: T-cell proliferation, lymph node cells of chimeric 0401-IE transgenic mice; settings: DR4-LN; for Immunsupressive assays DR4-LN (Max) % Inhibition: maximal inhibition; for IC50: read-out: Immunsupressive assays DR4-LN (IC50)
Procedure: The compounds were tested as follows to inhibit the proliferative T cell response of antigen-primed lymph node cells from mice carrying a chimeric mouse-human class II transgene with an RA-associated peptide binding site, and lack murine class II molecules (Muller et al., 1990; Woods et al., 1994; Current Protocols in Immunology, Vol. 2, 7.21; Ito et al., 1996). Here, the immunization takes place in vivo, but the inhibition and readout are ex vivo. […] These mice lack murine MHC class II, and thus, all Th responses are channelled through a single human RA-associated MHC class II molecule (Ito et al. 1996). These transgenic mice represent a model for testing human class II antagonists.
1.5×10^5 cells are incubated in 0.2 ml wells of 96-well tissue culture plates in the presence of ovalbumin (30 μg per well—half-maximal stimulatory concentration) and a dilution series of the compound under test (from around 0.1 to 200 uM) in serum free HL-1 medium containing 2 mM L-glutamine and 0.1 g/l Kanamycin for three days. Antigen specific proliferation is measured by 3H-methyl-thymidine (1 μCi/well) incorporation during the last 16 h of culture (Falcioni et al., 1999). Cells are harvested, and 3H incorporation measured using a scintillation counter (TopCount, Wallac Finland).

[11] = 0404, read-out: Protein binding IC50 (nM) 0404

Structure (SMILES) | IC50 [1] [µM] | IC50 [2] [nM] | IC50 [3, 11] [nM] | Stability (Arbitrary units) Rat 6 h [4] [Arbitrary units] | Stability (Arbitrary units) Rat 24 h [4] [Arbitrary units] | Stability (Arbitrary units) Mouse 6 h [5] [Arbitrary units] | Stability (Arbitrary units) Mouse 24 h [5] [Arbitrary units] | Stability (Arbitrary units) Cath D 4 h [6] [Arbitrary units] | Stability (Arbitrary units) Cath B 4 h [7] [Arbitrary units] | Immunsupressive assays DR14-LN (Max) % Inhibition [8] [%] | IC50 [8] [µM] | Stability (Arbitrary units) Human 6 h [9] [Arbitrary units] | Stability (Arbitrary units) Human 24 h [9] [Arbitrary units] | Immunsupressive assays DR4-LN (Max) % Inhibition [10] [%] | IC50 [10] [µM] | further results
CCCC[C@H](NC(=O)[C@@H]1Cc2ccccc2CN1C(=O)[C@H](CCCNC(=N)N)NC(=O)[C@H](CC1CCCCC1)NC(C)=O)C(=O)N(C)CCc1ccccc1 [Compound P83, Ac-Cha-Arg-Tic-Nle-N(Me)CH2CH2Ph] (Ac-[Cha]R[Tic][Nle]-{N(Me)CH2CH2Ph}) | 24 | 1300 | 11000 | 69 | 85 | 93 | 58 | 98 | 100 | 100 | 13 |  |  |  |  | 
CCCC[C@H](NC(=O)[C@@H]1Cc2ccccc2CN1C(=O)[C@@H](NC(=O)[C@H](CC1CCCCC1)NC(C)=O)C1CCN(C(=N)N)CC1)C(=O)N(CCO)Cc1ccccc1 [Compound P78, Ac-Cha-Gpg-Tic-Nle-N(Bn)CH2CH2OH] (Ac-[Cha][Gly(1-amidinopiperidin-4-yl)][Tic][Nle]-X5) | 2.6 | 430 | 1200 | 184 | 107 | 90 | 113 | 108 | 100 | 100 | 36 | 73 | 130 | 97 | 36 | 
CCCC[C@H](NC(=O)[C@@H]1Cc2ccccc2CN1C(=O)[C@H](CCCNC(=N)N)NC(=O)[C@H](CC1CCCCC1)NC(C)=O)C(=O)N(CCOCCO)Cc1ccccc1 [Compound P98, Ac-Cha-Arg-Tic-Nle-N(Bn)CH2CH2OCH2CH2OH] (Ac-[Cha]R[Tic][Nle]-X2) | 4.7 | 640 | 1300 | 71 | 60 | 87 | 54 | 104 | 104 |  | > 200 | 116 | 121 | 67 | 69 | 
CCCC[C@H](NC(=O)[C@@H]1Cc2ccccc2CN1C(=O)[C@@H](NC(=O)[C@H](CC1CCCCC1)NC(C)=O)C1CCN(C(=N)N)CC1)C(=O)N1CCc2ccccc2C1 [Compound P77, Ac-Cha-Gpg-Tic-Nle-tetrahydroisoquinoline] (Ac-[Cha][Gly(1-amidinopiperidin-4-yl)][Tic][Nle]-{Tetrahydroisoquinolin(2-yl)}) | 8.7 | 1900 | 3600 | 129 | 57 | 141 | 181 | 95 | 107 | 99 | 14 | 111 | 114 | 100 | 10 | 
CSCC[C@H](NC(=O)[C@@H]1Cc2ccccc2CN1C(=O)[C@H](CCCNC(=N)N)NC(=O)[C@H](CC1CCCCC1)NC(C)=O)C(=O)N(CCOCCO)CCc1ccccc1 [Compound P96, Ac-Cha-Arg-Tic-Met-N(CH2CH2Ph)CH2CH2OCH2CH2OH] (Ac-[Cha]R[Tic]M-X4) | 5.9 | 1000 |  |  |  |  |  | 106 | 91 |  |  |  |  |  |  | IC50 ([3]; Protein binding IC50 (nM) 0404, 0404): 7400 nM; Stability (Arbitrary units) Rat 6 h ([4]; rat plasma, 6 h): 83 Arbitrary units; Stability (Arbitrary units) Rat 24 h ([4]; rat plasma, 24 h): 45 Arbitrary units; Stability (Arbitrary units) Mouse 6 h ([5]; mouse plasma, 6 h): 108 Arbitrary units; Stability (Arbitrary units) Mouse 24 h ([5]; mouse plasma, 24 h): 82 Arbitrary units; Stability (Arbitrary units) Human 6 h ([9]; human plasma, 6 h): 117 Arbitrary units; Stability (Arbitrary units) Human 24 h ([9]; human plasma, 24 h): 64 Arbitrary units
CCCC[C@H](NC(=O)[C@@H]1Cc2ccccc2CN1C(=O)[C@H](CCCNC(=N)N)NC(=O)[C@H](CC1CCCCC1)NC(C)=O)C(=O)N(CCO)CCc1ccccc1 [Compound P81, Ac-Cha-Arg-Tic-Nle-N(CH2CH2OH)CH2CH2Ph] (Ac-[Cha]R[Tic][Nle]-X6) | 22 | 3300 | 20000 | 88 | 76 | 107 | 70 | 99 | 99 |  |  | 104 | 109 |  |  | 
